According to PMC10281575, “PfCRT mutations conferring piperaquine resistance in falciparum malaria shape the kinetics of quinoline drug binding and transport” (PLOS Pathogens, 2023):
Values joined by “and” are separate entries in the source; they are usually repeats but may differ in a detail not shown here. Equal entries are not always repeated. Where two headings read alike, the source gives them in different places.

Molecular target: T1, PfCRT^Dd2 (Plasmodium falciparum, UniProt Q8IBZ9, A220S/I356T/K76T/M74I/N326S/N75E/Q271E/R371I)
T1 sequence (Q8IBZ9 1-424 M74I/N75E/K76T/A220S/Q271E/N326S/I356T/R371I): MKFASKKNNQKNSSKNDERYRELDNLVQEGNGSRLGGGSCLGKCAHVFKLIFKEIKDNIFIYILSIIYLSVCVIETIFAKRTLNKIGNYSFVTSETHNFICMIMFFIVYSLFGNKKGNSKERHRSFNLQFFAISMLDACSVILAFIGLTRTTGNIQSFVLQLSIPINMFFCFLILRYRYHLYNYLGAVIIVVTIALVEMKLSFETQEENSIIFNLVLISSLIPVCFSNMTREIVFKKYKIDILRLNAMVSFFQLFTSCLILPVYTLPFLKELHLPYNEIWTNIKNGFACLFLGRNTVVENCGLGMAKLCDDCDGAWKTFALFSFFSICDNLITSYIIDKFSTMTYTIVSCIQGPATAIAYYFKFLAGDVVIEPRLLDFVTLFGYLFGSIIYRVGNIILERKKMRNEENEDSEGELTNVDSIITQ
Test: Competition kinetics of drug transport (radiolabeled substrate plus cold inhibitor), PfCRT^Dd2-expressing oocytes
Type: cell-based
Set-up: expressed in transfected cells; host or cells: Xenopus laevis oocytes injected with in vitro transcribed RNA (pSP64T)
Conditions: for PfCRTDd2-mediated CQ transport 500 µM CQ: single replicates; for Vmax, maximal velocity of drug transport: global fit; for β, partiality factor: factor on transport of the labeled drug by the other drug
Procedure: The experimental procedure and the data analysis were as described above.
The difference between the two models lies in the value of α, a parameter describing how much the affinity for the substrate changes when the inhibitor is already bound, and vice versa. […] The resulting Vmax,app values and the Vmax,app/KM,app ratios were plotted as a function of the inhibitor concentration (Fig 5A).
Drug transport assays were performed as previously described. Briefly, measurements of radiolabeled drug uptake were made over 1 h, unless otherwise specified. […] Where specified, one or more unlabeled drugs were also present at the indicated concentrations. […] The uptake assays were terminated by removing the oocytes from the reaction medium and washing them three times with 2 mL of ice-cold ND96 buffer. Each oocyte was transferred to a separate scintillation vial and lysed by the addition of 200 μL of a 5% SDS solution. The radioactivity in the sample was measured using a liquid scintillation analyser Tri-Carb 4910 TR (PerkinElmer). Water-injected oocytes were analyzed in parallel as a negative control. The buffer from each condition was measured in duplicate in parallel to each experiment to transform counts per minute into pmol of drug. Drug uptake attributable to PfCRT was determined by subtracting the background uptake from water-injected oocytes from that of PfCRT-expressing oocytes. In all cases, at least three independent experiments were performed on oocytes from different frogs, and for each condition in an experiment, measurements were made from 10 oocytes per treatment.
The following equations were adopted from Segel (1993), and the reader is referred to that text for the assumptions made in the author’s approach in the derivation of each equation [31]. The concentration of substrate is denoted as [S1] and the concentration of the inhibiting substrate is denoted as [S2]. KS1 and KS2 are the dissociation constants for the respective substrate-protein complexes.
Analyses of the kinetic data were performed using SigmaPlot version 13.0 and Python. The drug competition models were globally fit to the kinetic data using the least-squares method and ranked according to their corrected Akaike information criterion difference (ΔAICC) and their Akaike weight, using Python. The two top-ranked models were compared using an F-test.
This factor reflects how much the affinity of the transporter for one drug changes when the other drug is already bound in the protein cavity. In the former model, α > 0 and α ≠ 1. In the latter model, it could be thought of as if α = 1. Because of this, discriminating between the two models also means determining the value of α. In Mixed-type (Partial) inhibition, the apparent maximal velocity (Vmax,app) is given by Eq 22, Vmax,app=Vmax(1+β[S2]/αKS2)/(1+[S2]/αKS2) (Eq 22)
Vmax,app is the maximal rate of substrate transport at a certain inhibitor concentration. The half-maximal inhibitory concentration is given by the term in the denominator different from [S2], which in this case is αKS2. This means that by plotting Vmax,app as a function of [S2], the value of αKS2 can be derived after fitting the curve to Eq 23.
The half-maximal inhibitory concentration derived from this hyperbolic equation is equal to KS2. By plotting Vmax,app/KM,app as a function of [S2], one can derive KS2 after fitting the curve to Eq 25. The value of α can then be calculated dividing αKS2 by KS2.

CCN(CC)CCCC(C)Nc1ccnc2cc(Cl)ccc12 (stereo not shown) [CQ, chloroquine]
PfCRTDd2-mediated CQ transport 500 µM CQ (0 µM PPQ): 25.01 pmol oocyte-1 h-1 and 21.69 pmol oocyte-1 h-1 and 19.19 pmol oocyte-1 h-1 and 20.87 pmol oocyte-1 h-1 | PfCRTDd2-mediated CQ transport 500 µM CQ (50 µM PPQ): 19.01 pmol oocyte-1 h-1 and 16.61 pmol oocyte-1 h-1 and 18.59 pmol oocyte-1 h-1 | PfCRTDd2-mediated CQ transport 500 µM CQ (125 µM PPQ): 18.10 pmol oocyte-1 h-1 and 16.11 pmol oocyte-1 h-1 and 15.06 pmol oocyte-1 h-1 | PfCRTDd2-mediated CQ transport 500 µM CQ (200 µM PPQ): 12.71 pmol oocyte-1 h-1 and 15.12 pmol oocyte-1 h-1 and 13.60 pmol oocyte-1 h-1 | PfCRTDd2-mediated CQ transport 500 µM CQ (350 µM PPQ): 12.41 pmol oocyte-1 h-1 and 14.97 pmol oocyte-1 h-1 and 10.99 pmol oocyte-1 h-1 | PfCRTDd2-mediated CQ transport 500 µM CQ (500 µM PPQ): 15.66 pmol oocyte-1 h-1 and 9.12 pmol oocyte-1 h-1 and 11.85 pmol oocyte-1 h-1 | most plausible inhibition model (16 models, ΔAICC, Akaike weight, F-test, label = cold inhibitor of the other drug's transport): partial noncompetitive inhibition | Vmax, maximal velocity of drug transport (Mixed (Partial) model, drug as radiolabeled substrate): 33 ± 1 pmol oocyte^-1 h^-1 | Kd (Mixed (Partial) model, drug as cold inhibitor, read-out: KS, dissociation constant for the PfCRT-substrate complex): 210 ± 80 µM | Kd (Mixed (Partial) model, drug as radiolabeled substrate, read-out: KS, dissociation constant for the PfCRT-substrate complex): 260 ± 25 µM | β, partiality factor (Mixed (Partial) model): 0.38 ± 0.06 | α, KS interaction factor (Mixed (Partial) model, label = radiolabeled substrate, other drug cold inhibitor): 1.0 ± 0.2 | Vmax, maximal velocity of drug transport (Noncompetitive (Partial) model, drug as radiolabeled substrate, other drug as cold inhibitor): 32 pmol oocyte^-1 h^-1 and 32 ± 1 pmol oocyte^-1 h^-1 | Kd (Noncompetitive (Partial) model, drug as cold inhibitor, read-out: KS, dissociation constant for the PfCRT-substrate complex): 238 µM and 240 µM | Kd (Noncompetitive (Partial) model, drug as radiolabeled substrate, read-out: KS, dissociation constant for the PfCRT-substrate complex): 254 µM and 250 µM | β, partiality factor (Noncompetitive (Partial) model): 0.38 and 0.38 ± 0.04 | KMapp ([3H]CQ + PPQ) ([PPQ] 0 µM): 257.93 µM | Vmaxapp ([3H]CQ + PPQ) ([PPQ] 0 µM): 32.70 pmol oocyte-1 h-1 | Vmaxapp/KMapp ([3H]CQ + PPQ) ([PPQ] 0 µM): 0.1268 h⁻¹ | KMapp ([3H]CQ + PPQ) ([PPQ] 50 µM): 250.37 µM | Vmaxapp ([3H]CQ + PPQ) ([PPQ] 50 µM): 27.98 pmol oocyte-1 h-1 | Vmaxapp/KMapp ([3H]CQ + PPQ) ([PPQ] 50 µM): 0.1117 h⁻¹ | KMapp ([3H]CQ + PPQ) ([PPQ] 125 µM): 258.31 µM | Vmaxapp ([3H]CQ + PPQ) ([PPQ] 125 µM): 25.60 pmol oocyte-1 h-1 | Vmaxapp/KMapp ([3H]CQ + PPQ) ([PPQ] 125 µM): 0.0991 h⁻¹ | KMapp ([3H]CQ + PPQ) ([PPQ] 200 µM): 254.40 µM | Vmaxapp ([3H]CQ + PPQ) ([PPQ] 200 µM): 21.83 pmol oocyte-1 h-1 | Vmaxapp/KMapp ([3H]CQ + PPQ) ([PPQ] 200 µM): 0.0858 h⁻¹ | KMapp ([3H]CQ + PPQ) ([PPQ] 350 µM): 250.34 µM | Vmaxapp ([3H]CQ + PPQ) ([PPQ] 350 µM): 19.75 pmol oocyte-1 h-1 | Vmaxapp/KMapp ([3H]CQ + PPQ) ([PPQ] 350 µM): 0.0789 h⁻¹ | KMapp ([3H]CQ + PPQ) ([PPQ] 500 µM): 247.83 µM | Vmaxapp ([3H]CQ + PPQ) ([PPQ] 500 µM): 17.90 pmol oocyte-1 h-1 | Vmaxapp/KMapp ([3H]CQ + PPQ) ([PPQ] 500 µM): 0.0722 h⁻¹ | β^CQ, partiality factor (fractional velocity plot, factor by which PPQ slows down CQ transport): 0.35 ± 0.06 | Kd (secondary plot, half-maximum inhibitory concentration of Vmax,app versus inhibitor concentration, read-out: αKS, dissociation constant between the drug and the PfCRT complex with the other drug): 220 ± 85 µM | α (αKS divided by KS) (secondary plots, label = prebound drug): 1.0 ± 0.3
